Ring closure, yield of all isomers data for 7 molecules are collected here from patent publication US9738661.

Like-named read-outs stand apart in the source and are kept apart here.

Regarding `COC(=O)[C@@H]1C[C@@H]2CN1C(=O)[C@H](C(C)(C)C)NC(=O)OCCCCC=CCC1CCCCC1OC(=O)N2` (stereo partly shown), the ring closure, yield of all isomers (from C=CCCCCOC(=O)N[C@H](C(=O)N1C[C@H](NC(=O)OC2CCCCC2CC=C)C[C@H]1C(=O)OC)C(C)(C)C, rcm bond, Zhan 1a catalyst, DCE, 5.0 mM, 83.0 °C, 1.5 h) was 49.8%.

For the setting “from C=CCCCCCOC(=O)N[C@H](C(=O)N1C[C@H](Oc2ccc3ccccc3c2Br)C[C@H]1C(=O)OC)C1CCCCC1, cc_pd bond, PdCl2(dppf)-DCM, EtOH, 50.3 mM, 78.0 °C, 48.0 h”, `C=C1CCCCCOC(=O)N[C@@H](C2CCCCC2)C(=O)N2C[C@@H](C[C@H]2C(=O)OC)Oc2ccc3ccccc3c21` returned a ring closure, yield of all isomers of 52.7%.

Molecule `COC(=O)[C@@H]1C[C@@H]2CN1C(=O)[C@H](C1CCCC1)NC(=O)O[C@@H]1CCC[C@H]1CCCC=Cc1nc3ccccc3cc1O2` (mixture of isomers) registered a ring closure, yield of all isomers (from C=CCCC[C@@H]1CCC[C@H]1OC(=O)N[C@H](C(=O)N1C[C@H](Oc2cc3ccccc3nc2C=C)C[C@H]1C(=O)OC)C1CCCC1, rcm bond, Zhan catalyst, DCE, 10.0 mM, 90.0 °C, 1.5 h) of 74%.

`COC(=O)[C@@H]1C[C@@H]2CN1C(=O)[C@H](C(C)(C)C)NC(=O)OCCCCCC=Cc1ccccc1C#CCO2.[C-]#[O+].[C-]#[O+].[C-]#[O+].[C-]#[O+].[C-]#[O+].[C-]#[O+].[Co].[Co]` yielded a ring closure, yield of all isomers (from C=CCCCCCOC(=O)N[C@H](C(=O)N1C[C@H](OCC#Cc2ccccc2C=C)C[C@H]1C(=O)OC)C(C)(C)C.[C-]#[O+].[C-]#[O+].[C-]#[O+].[C-]#[O+].[C-]#[O+].[C-]#[O+].[Co].[Co], rcm bond) of 34.5%.

Where the note is “from C=CCCCCOC(=O)N[C@@H](CCCC)C(=O)N1C[C@H](Oc2ccccc2CC=C)C[C@H]1C(=O)OC, rcm bond, Zhan 1a catalyst, DCE, 4.9 mM, 83.0 °C, 2.0 h”, `CCCC[C@@H]1NC(=O)OCCCCC=CCc2ccccc2O[C@@H]2C[C@@H](C(=O)OC)N(C2)C1=O` registered a ring closure, yield of all isomers of 100%.

With `COC(=O)[C@@H]1C[C@@H]2CN1C(=O)[C@H](C(C)(C)C)NC(=O)OCCCCC/C=C/c1cccnc1O2`, the ring closure, yield of all isomers (from C=CCCCCCOC(=O)N[C@H](C(=O)N1C[C@H](Oc2ncccc2C=C)C[C@H]1C(=O)OC)C(C)(C)C, rcm bond, Zhan 1b catalyst, DCM, 5.03 mM, 16.0 h) was determined as 92.9%.

On to `COC(=O)[C@@H]1C[C@@H]2CN1C(=O)[C@H](C(C)(C)C)NC(=O)O[C@@H]1CCC[C@H]1CCCC=Cc1nc3ccc(OC)cc3cc1O2`, for which the ring closure, yield of all isomers (from C=CCCC[C@@H]1CCC[C@H]1OC(=O)N[C@H](C(=O)N1C[C@H](Oc2cc3cc(OC)ccc3nc2C=C)C[C@H]1C(=O)OC)C(C)(C)C, rcm bond, Zhan catalyst, DCE, 16.0 mM, 90.0 °C, 2.0 h) was 84%.
